Laboratory results reported in patent US8722849B2, “Polypeptides” (Novo Nordisk A/S, priority 2011, dated 2014).
Values after ≈ are worked out from the molar mass of the structure shown. Where two headings read alike, the source gives them in different places. Starred links: 1 amine or outer side, 2 acyl side, 3 side chain; linkers in the order of their positions; H or OH if unused. Positions of bridges follow the written chain, without caps; N, C: chain ends. Residues, ends and D or L forms follow the SMILES beside them. *: point of attachment. C20 diacid = O=C(O)CCCCCCCCCCCCCCCCCCC(=O)*; C18 diacid = O=C(O)CCCCCCCCCCCCCCCCC(=O)*; γGlu = O=C(O)[C@H](CCC(=O)[*:2])N[*:1]

Legend:
[1] = biological target: T1, human calcitonin receptor (Homo sapiens, UniProt P30988); test: Assay (II)a functional CRE-luciferase assay, human calcitonin receptor; assay type: cell-based; conditions: Table 7; human calcitonin (CTa) receptor
T1 construct: expressed in transfected cells; host or cells: BHK570
T1 sequence (P30988 25-474): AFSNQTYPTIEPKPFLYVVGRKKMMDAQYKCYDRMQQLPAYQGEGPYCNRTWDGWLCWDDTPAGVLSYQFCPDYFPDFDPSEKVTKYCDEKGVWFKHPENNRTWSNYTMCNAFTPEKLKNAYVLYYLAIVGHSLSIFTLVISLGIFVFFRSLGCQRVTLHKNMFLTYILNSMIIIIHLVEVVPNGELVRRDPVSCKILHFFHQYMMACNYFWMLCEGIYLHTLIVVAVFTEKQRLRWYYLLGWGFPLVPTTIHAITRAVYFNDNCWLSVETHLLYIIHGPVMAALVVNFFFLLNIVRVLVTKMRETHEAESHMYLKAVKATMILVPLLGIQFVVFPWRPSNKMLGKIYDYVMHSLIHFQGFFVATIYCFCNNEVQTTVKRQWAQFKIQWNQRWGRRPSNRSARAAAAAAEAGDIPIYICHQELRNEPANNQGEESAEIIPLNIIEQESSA

[2] = Assay (III) ThT fibrillation assay for physical stability; assay type: physicochemical; conditions: ThT fibrillation assay
Summary of the method: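 Freshly prepared formulations, pH-adjusted, with 1 μM ThT; four or eight replicates incubated at 37 °C under 960 rpm orbital shaking. Fluorescence (ex 444/em 485 nm) read every 20 min; […]. Peptide concentration measured by RP-HPLC before and after the run.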

[3] = Assay (IV) determination of solubility; assay type: physicochemical
Summary of the method: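 Solubility is measured across pH 3.0–8.0 by mixing a ~500 nmol/ml aqueous polypeptide stock 1:1 with 100 mM glycylglycine or bistrispropane buffers. Samples stand 18 hours at room temperature, then are centrifuged and the soluble concentration is determined by HPLC.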

[4] = biological target: T2, human amylin receptor (amylin 3(a) receptor: human calcitonin receptor + RAMP-3) (Homo sapiens, UniProt O60896+P30988); test: Assay (II)a functional CRE-luciferase assay, human amylin receptor; assay type: cell-based; conditions: Table 2; BHK amylin 3(a)-receptor/CRE-luc cells
T2 construct: expressed in transfected cells; host or cells: BHK570
T2 sequence (P30988 25-474): T1 sequence (P30988 25-474)
T2 sequence (O60896 24-148 partner): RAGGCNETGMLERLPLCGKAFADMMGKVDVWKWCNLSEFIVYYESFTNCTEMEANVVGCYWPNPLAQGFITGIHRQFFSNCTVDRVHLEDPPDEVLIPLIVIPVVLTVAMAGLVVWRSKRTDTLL

[5] = bistrispropane buffer, pH 6, pH 6.0, read-out: Solubility pH 6.0
[6] = bistrispropane buffer, pH 6.5, pH 6.5, read-out: Solubility pH 6.5
[7] = bistrispropane buffer, pH 7.5, pH 7.5, read-out: Solubility pH 7.5
[8] = bistrispropane buffer, pH 8, pH 8.0, read-out: Solubility pH 8.0
[9] = glycylglycine buffer, pH 3, pH 3.0, read-out: Solubility pH 3.0
[10] = glycylglycine buffer, pH 4, pH 4.0, 18 hours at room temperature, Table 2, read-out: Solubility pH 4.0
[11] = glycylglycine buffer, pH 4, pH 4.0, read-out: Solubility pH 4.0
[12] = glycylglycine buffer, pH 5, pH 5.0, read-out: Solubility pH 5.0
[13] = bistrispropane buffer, pH 7, pH 7.0, read-out: Solubility pH 7.0

| SMILES | EC50 [1] [nM] | ThT pH 4.0 lag time (h) [2] [h] | solubility at 18 h [3, 5] [µM] | solubility at 18 h [3, 6] [µM] | solubility at 18 h [3, 7] [µM] | solubility at 18 h [3, 8] [µM] | solubility at 18 h [3, 9] [µM] | solubility at 18 h [3, 10] [µM] | solubility at 18 h [3, 11] [µM] | solubility at 18 h [3, 12] [µM] | EC50 [4] [nM] | solubility at 18 h ([3]; bistrispropane buffer, pH 7, pH 7.0, 18 hours at room temperature, Table 3, read-out: Solubility pH 7.0) [µM] | solubility at 18 h [3, 13] [µM] | ThT pH 4.0 lag time [2] [h] |
| --- | --- | --- | --- | --- | --- | --- | --- | --- | --- | --- | --- | --- | --- | --- |
| CC[C@H](C)[C@H](NC(=O)[C@@H]1CCCN1C(=O)CNC(=O)[C@H](Cc1ccccc1)NC(=O)[C@H](CC(N)=O)NC(=O)[C@H](CC(N)=O)NC(=O)[C@H](CO)NC(=O)[C@H](CO)NC(=O)[C@H](Cc1c[nH]cn1)NC(=O)[C@H](Cc1c[nH]cn1)NC(=O)[C@H](CC(C)C)NC(=O)[C@H](Cc1ccccc1)NC(=O)[C@H](CCC(=O)O)NC(=O)[C@H](C)NC(=O)[C@H](CC(C)C)NC(=O)[C@H](CCCNC(=N)N)NC(=O)[C@H](CCC(N)=O)NC(=O)[C@@H](NC(=O)[C@H](C)NC(=O)[C@@H]1CSSC[C@H](NC(=O)[C@H](Cc2c[nH]cn2)NC(=O)[C@H](Cc2c[nH]cn2)NC(=O)[C@H](Cc2c[nH]cn2)NC(=O)CC[C@H](NC(=O)CCCCCCCCCCCCCCCCCCC(=O)O)C(=O)O)C(=O)N[C@@H](CC(N)=O)C(=O)N[C@@H]([C@@H](C)O)C(=O)N[C@@H](C)C(=O)N[C@@H]([C@@H](C)O)C(=O)N1)[C@@H](C)O)C(=O)N[C@@H](CC(C)C)C(=O)N1CCC[C@H]1C(=O)N[C@@H](Cc1c[nH]cn1)C(=O)N[C@H](C(=O)N[C@@H](CC(N)=O)C(=O)N[C@H](C(=O)NCC(=O)N[C@@H](CO)C(=O)N[C@@H](CC(N)=O)C(=O)N[C@H](C(=O)N[C@@H](Cc1ccc(O)cc1)C(N)=O)[C@@H](C)O)C(C)C)[C@@H](C)O [Example 36, N-alpha-[(S)-4-Carboxy-4-(19-carboxynonadecanoylamino)butyryl]-His-His-[His1,Glu14,His17,His29]-pramlintide] ({C20 diacid-γGlu}-HHHCNTATCATQRLAEFLHHSSNNFGPILPHTNVGSNTY-NH2; disulfide 4-9 (inferred)) | 0.191 | 1.3 | > 200 | 14 (≈ 66.9 µg/mL) | 2 (≈ 9.56 µg/mL) | 60 (≈ 287 µg/mL) | > 200 | > 200 | > 200 | > 200 | 0.167 | – | – | – |
| CC[C@H](C)[C@H](NC(=O)[C@@H]1CCCN1C(=O)CNC(=O)[C@H](Cc1ccccc1)NC(=O)[C@H](CC(N)=O)NC(=O)[C@H](CC(N)=O)NC(=O)[C@H](CO)NC(=O)[C@H](CO)NC(=O)[C@H](Cc1c[nH]cn1)NC(=O)[C@H](Cc1c[nH]cn1)NC(=O)[C@H](CC(C)C)NC(=O)[C@H](Cc1ccccc1)NC(=O)[C@H](CCC(=O)O)NC(=O)[C@H](C)NC(=O)[C@H](CC(C)C)NC(=O)[C@H](CCCNC(=N)N)NC(=O)[C@H](CCC(N)=O)NC(=O)[C@@H](NC(=O)[C@H](C)NC(=O)[C@@H]1CSSC[C@H](NC(=O)[C@H](Cc2c[nH]cn2)NC(=O)[C@H](CCC(=O)O)NC(=O)CC[C@H](NC(=O)CCCCCCCCCCCCCCCCCCC(=O)O)C(=O)O)C(=O)N[C@@H](CC(N)=O)C(=O)N[C@@H]([C@@H](C)O)C(=O)N[C@@H](C)C(=O)N[C@@H]([C@@H](C)O)C(=O)N1)[C@@H](C)O)C(=O)N[C@@H](CC(C)C)C(=O)N1CCC[C@H]1C(=O)N1CCC[C@H]1C(=O)N[C@H](C(=O)N[C@@H](CC(N)=O)C(=O)N[C@H](C(=O)NCC(=O)N[C@@H](CO)C(=O)N[C@@H](CC(N)=O)C(=O)N[C@H](C(=O)N[C@@H](Cc1ccc(O)cc1)C(N)=O)[C@@H](C)O)C(C)C)[C@@H](C)O [Example 40, N-alpha-[(S)-4-Carboxy-4-(19-carboxynonadecanoylamino)butyryl]-Glu-[His1,Glu14,His17]-pramlintide] ({C20 diacid-γGlu}-EHCNTATCATQRLAEFLHHSSNNFGPILPPTNVGSNTY-NH2; disulfide 3-8 (inferred); C-terminus assumed) | 0.439 | 7 | > 200 | > 200 | > 200 | > 200 | > 200 | > 200 | > 200 | > 200 | 0.248 | > 200 | > 200 | – |
| CC[C@H](C)[C@H](NC(=O)[C@@H]1CCCN1C(=O)CNC(=O)[C@H](Cc1ccccc1)NC(=O)[C@H](CC(N)=O)NC(=O)[C@H](CC(N)=O)NC(=O)[C@H](CO)NC(=O)[C@H](CO)NC(=O)[C@H](Cc1c[nH]cn1)NC(=O)[C@H](Cc1c[nH]cn1)NC(=O)[C@H](CC(C)C)NC(=O)[C@H](Cc1ccccc1)NC(=O)[C@H](CCC(=O)O)NC(=O)[C@H](C)NC(=O)[C@H](CC(C)C)NC(=O)[C@H](CCCNC(=N)N)NC(=O)[C@H](CCC(N)=O)NC(=O)[C@@H](NC(=O)[C@H](C)NC(=O)[C@@H]1CSSC[C@H](NC(=O)[C@H](CCCCN)NC(=O)[C@H](CCC(=O)O)NC(=O)[C@H](CCC(=O)O)NC(=O)CC[C@H](NC(=O)CCCCCCCCCCCCCCCCCCC(=O)O)C(=O)O)C(=O)N[C@@H](CC(N)=O)C(=O)N[C@@H]([C@@H](C)O)C(=O)N[C@@H](C)C(=O)N[C@@H]([C@@H](C)O)C(=O)N1)[C@@H](C)O)C(=O)N[C@@H](CC(C)C)C(=O)N1CCC[C@H]1C(=O)N1CCC[C@H]1C(=O)N[C@H](C(=O)N[C@@H](CC(N)=O)C(=O)N[C@H](C(=O)NCC(=O)N[C@@H](CO)C(=O)N[C@@H](CC(N)=O)C(=O)N[C@H](C(=O)N[C@@H](Cc1ccc(O)cc1)C(N)=O)[C@@H](C)O)C(C)C)[C@@H](C)O [Example 41, N-alpha-[(S)-4-Carboxy-4-(19-carboxynonadecanoylamino)butyryl]-Glu-Glu-[Glu14,His17]-pramlintide] ({C20 diacid-γGlu}-EEKCNTATCATQRLAEFLHHSSNNFGPILPPTNVGSNTY-NH2; disulfide 4-9 (inferred)) | 0.798 | 0 | 1 (≈ 4.71 µg/mL) | 1 (≈ 4.71 µg/mL) | 1 (≈ 4.71 µg/mL) | 4 (≈ 18.9 µg/mL) | > 200 | 118 (≈ 556 µg/mL) | 118 (≈ 556 µg/mL) | 1 (≈ 4.71 µg/mL) | 0.402 | – | 1 (≈ 4.71 µg/mL) | – |
| CC[C@H](C)[C@H](NC(=O)[C@@H]1CCCN1C(=O)CNC(=O)[C@H](Cc1ccccc1)NC(=O)[C@H](CC(N)=O)NC(=O)[C@H](CC(N)=O)NC(=O)[C@H](CO)NC(=O)[C@H](CO)NC(=O)[C@H](Cc1c[nH]cn1)NC(=O)[C@H](Cc1c[nH]cn1)NC(=O)[C@H](CC(C)C)NC(=O)[C@H](Cc1ccccc1)NC(=O)[C@H](CCC(=O)O)NC(=O)[C@H](C)NC(=O)[C@H](CC(C)C)NC(=O)[C@H](CCCNC(=N)N)NC(=O)[C@H](CCC(N)=O)NC(=O)[C@@H](NC(=O)[C@H](C)NC(=O)[C@@H]1CSSC[C@H](NC(=O)[C@H](Cc2c[nH]cn2)NC(=O)[C@H](Cc2c[nH]cn2)NC(=O)[C@H](Cc2c[nH]cn2)NC(=O)CC[C@H](NC(=O)CCCCCCCCCCCCCCCCC(=O)O)C(=O)O)C(=O)N[C@@H](CC(N)=O)C(=O)N[C@@H]([C@@H](C)O)C(=O)N[C@@H](C)C(=O)N[C@@H]([C@@H](C)O)C(=O)N1)[C@@H](C)O)C(=O)N[C@@H](CC(C)C)C(=O)N1CCC[C@H]1C(=O)N1CCC[C@H]1C(=O)N[C@H](C(=O)N[C@@H](CC(N)=O)C(=O)N[C@H](C(=O)NCC(=O)N[C@@H](CO)C(=O)N[C@@H](CC(N)=O)C(=O)N[C@H](C(=O)N[C@@H](Cc1ccc(O)cc1)C(N)=O)[C@@H](C)O)C(C)C)[C@@H](C)O [Example 45, N-alpha-[(S)-4-Carboxy-4-(17-carboxyheptadecanoylamino)butyryl]-His-His-[His1,Glu14,His17]-pramlintide] ({C18 diacid-γGlu}-HHHCNTATCATQRLAEFLHHSSNNFGPILPPTNVGSNTY-NH2; disulfide 4-9 (inferred); C-terminus assumed) | 0.265 | 36.7 | 188 (≈ 886 µg/mL) | 48 (≈ 226 µg/mL) | 134 (≈ 631 µg/mL) | > 200 | > 200 | > 200 | > 200 | > 200 | 0.0624 | – | 42 (≈ 198 µg/mL) | 36.7 |
